Values quoted from earlier work, collected in patent publication EP0313535B1 (Bristol-Myers Squibb Company, priority 1987, dated 1989).

Columns and labels:
[1] = metabolite of buspirone

O=C1CC2(CCCC2)CC(=O)N1CCCCN1CCN(c2ncc(O)cn2)CC1 [5-OH-buspirone]
pharmacological activity [1]: no pharmacological activity

O=C1CC2(CCCC2)CC(=O)N1CCCCN1CCN(c2ncccn2)CC1 [buspirone, Buspirone]
biological half life (in man (Mayol et al. 1985)): 2-11 hours
variation of the maximum plasma concentration (interindividual (Gammans et al. 1986)): up to 10 fold

c1cnc(N2CCNCC2)nc1 [Example 1-PP, 1-(2-pyrimidinyl)-piperazine]
activity relative to buspirone per se [1]: 20-25%
